Test results reported in publication PMC8684484, “The assessment of Pseudomonas aeruginosa lectin LecA binding characteristics of divalent galactosides using multiple techniques” (Glycobiology, 2021).

Experiments:
[1] = target: T1, LecA (Pseudomonas aeruginosa, UniProt Q05097); assay: Fluorescence-based thermal shift assay (TSA), Sypro orange; type: binding; conditions: ligand 500 μM; for Tm of LecA: no ligand 71.7
T1 construct: purchased Sigma–Aldrich (Steinheim, Germany)
Experimental: As ligand binding is known to shift the melting point of proteins in a ligand concentration dependent manner, we performed the TSA experiments with two different concentrations of LecA (0.5 and 1 mg/mL) containing the fluorescent dye sypro orange. […] Therefore, we selected a fixed concentration of 1 mg/mL for the subsequent experiments. […] Divalent 2 stabilizes LecA by more than 11°C at a concentration of 20 μM (Figure 7).
TSA was performed using a standard real-time PCR instrument. To monitor protein unfolding, the fluorescent dye Sypro orange was used. Sypro orange is an environmentally sensitive dye (Thermo Fischer 5000x in DMSO). The unfolding process exposes the hydrophobic region of proteins and results in a large increase in fluorescence, which is used to monitor the protein-unfolding transition ([Lo et al. 2004]). The TSA was performed with a BioRad CFX96 real-time PCR machine, and analysis for binding induced shifts in thermal transition was performed with Bio-Rad CFX Manager 3.1 Software provided by the manufacturer (BioRad, Hercules, CA, USA).
Galactose based inhibitors specifically bind to the binding pocket of the lectin. Ligands could stabilize LecA (0.5 and 1 mg/mL) upon binding and therefore the protein Tm might increase. The shift in Tm with an addition of the ligand (ΔTm) serves as a qualitative measure of protein stability and allows to determine whether a protein–ligand binding event occurs. We here show the effect of different carbohydrates on the thermal denaturation of LecA. Sypro orange conc, used: 320× from commercial 5000×).

[2] = target: T1, LecA; assay: Affinity capillary electrophoresis (ACE), direct binding, μeff shift of LecA with carbohydrate in BGE
Experimental: For affinity studies, two different LecA ligands were used. The first was the carboxylated galactoside (1). This was used as the reference monovalent ligand and its negatively charged carboxylate increases the chances of a protein shift in CE where charges are the important mobility determinant. Furthermore we used the bivalent carbohydrate (2), previously optimized for bivalent binding ([Yu et al. 2019b]). These glycoligands were added to the optimized CE background electrolyte (BGE) and the protein LecA was injected. For KD determination the BGE containing increasing concentrations of carbohydrate 1 or carbohydrate 2 were prepared and used for the analysis of LecA (10 μM). […] For each carbohydrate and each concentration, the difference of the measured μeff of LecA with the μeff acquired without carbohydrate in the BGE, was determined. […]
CE analyses were carried out using an Agilent 7100 instrument (Agilent technologies, USA). […] Ultraviolet detection was performed from 190 nm to 280 nm, but data recorded at 214 nm were used in this study. […]
BGEs containing increasing concentrations of compound 1 and/or compound 2 were prepared at the pH for which μeff shifts were observed and used for KD determination. For each carbohydrate and each studied concentration, the difference of the measured μeff of LecA with the μeff obtained without carbohydrate was determined. […]

[3] = target: T1, LecA; assay: Native ESI-MS occupancy of the LecA tetramer; type: binding; conditions: ligand 600 μM, LecA 10 μM; estimated from MS intensities
Experimental: At the high concentration of monovalent compound 1 (600 μM) incubated with LecA (10 μM), a varying number of binding pockets of the tetrameric lectin were occupied by the monovalent ligand indicated by four different peaks in close proximity (Figure 8b). At these concentrations, an estimated number of copies of LecA of 8% remains fully unoccupied, 18% has one pocket occupied, 26% has two pockets occupied, 27% has three pockets occupied and 21% is fully occupied. We used the intensity values as determined by mass spectrometry as a proxy of their abundances in solution to calculate the occupancy values, for which previously it was shown that there is good correlation ([Seo et al. 2016]).
At a low (substoichiometric) concentration of divalent compound 2 (2 μM), 3 m/z peaks were observed that correspond to unbound LecA (estimated 6%), LecA bound to one compound 2 (estimated 39%) and LecA bound to two of the divalent ligand 2 (estimated 55%) (Figure 8c). […] As no peaks were detected corresponding to a single or triple binding pockets of the tetrametric lectin, excellent support is provided for the effective divalent binding of our molecule at reasonable concentrations.
To investigate the interaction between LecA and compounds 1 and 2, we incubated these compounds with LecA and transferred the produced complex into a 150 mM ammonium acetate solution (pH 7.5) by applying 10 μM of the protein ligand complex in a ratio of 1:1 on a pre-equilibrated 6-kDa Micro Bio-Spin column (Bio-Rad). The protein was eluted by centrifugation at 1,000 × g and 4°C. MS measurements were performed in positive ion mode using an Electrospray Ionization Time-of-Flight instrument (LC-T; Micromass, Manchester, UK) equipped with a Z-spray nanoelectrospray ionization source. Samples were sprayed from in-house prepared borosilicate glass capillaries (Kwik-Fil; World Precision Instruments, Sarasota, FL) prepared on a P-97 puller (Sutter Instruments, Novato, CA, USA) and coated with a thin layer of gold by using an Edwards Scan coat six Pirani 501 sputter coater (Edwards Laboratories, Milpitas, CA, USA). Instrument settings were adjusted for optimal transmission of high mass ions. A capillary voltage of 1300 V was used, in combination with a sampling cone voltage of 60 V. The source backing pressure was elevated to approximately 6.7 mbar in order to promote collisional cooling. All TOF data were mass calibrated by using an aqueous solution of cesium iodide (25 mg·mL^−1) and interpreted manually using MassLynx software (Waters, version 4.1).

[4] = target: T2, Maclura pomifera Lectin (MPL) (Maclura pomifera, UniProt P18674); assay: ACE selectivity experiment with MPL as binding competitor; conditions: mixture of LecA and MPL; 1 mM of 1 or 20 μM of 2 in BGE
T2 construct: purchased Vector Laboratories (San Francisco, CA, USA)
T2 sequence (P18674 whole entry): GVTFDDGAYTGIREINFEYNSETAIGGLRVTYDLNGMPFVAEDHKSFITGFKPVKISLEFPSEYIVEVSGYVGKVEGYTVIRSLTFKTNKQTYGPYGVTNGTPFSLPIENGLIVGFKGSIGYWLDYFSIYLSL
T2 sequence (P18676 whole entry partner): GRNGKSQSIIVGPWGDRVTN
Experimental: A mixture of LecA and MPL was analyzed by ACE, and affinity studies were carried out by adding the carbohydrates 1 and 2 to the BGE.
CE analyses were carried out using an Agilent 7100 instrument (Agilent technologies, USA). Bare fused-silica capillaries, with a 100 μm internal diameter, 365 μm outer diameter and a 50 cm total length, were from Biotaq (Gaithersburg, MD, USA). The detection window of the capillary was created at 10 cm from the outlet of the capillary. Hydrodynamic injections were performed at 17 mbar for 4 s, by injecting LecA or MPL (10 μM). The separation voltage was set at −10 kV and the caplillary temperature was maintained at 25°C during analysis. Ultraviolet detection was performed from 190 nm to 280 nm, but data recorded at 214 nm were used in this study. The BGE for the analysis of the lectins was potassium phosphate prepared by dissolving the appropriate amount of compounds in water and adjusting the pH with a sodium hydroxide solution. Capillaries were coated with Ultra Trol LN. Stable currents of 45 μA were observed during the affinity measurements with optimum buffer conditions (25 mM KH2PO4 at pH 7).
In order to study the affinity of LecA toward inhibitors, LecA was injected and carbohydrate inhibitors were added to the BGEs. BGEs were prepared containing 1 mM of compound 1, 20 μM of compound 2, or without carbohydrate. […]

[5] = target: T3, JIL (Jacalin lectin) (Artocarpus integer, UniProt P18670); assay: Bio-layer interferometry (BLI), biotinylated ligand on streptavidin sensor; type: binding, Jackfruits; conditions: immobilized ligand
T3 construct: purchased Sigma–Aldrich (Steinheim, Germany)
T3 sequence (P18670 whole entry): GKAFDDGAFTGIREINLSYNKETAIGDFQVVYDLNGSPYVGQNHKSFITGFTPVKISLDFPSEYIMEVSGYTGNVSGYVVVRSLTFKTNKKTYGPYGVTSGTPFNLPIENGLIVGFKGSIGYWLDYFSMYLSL
T3 sequence (P18673 whole entry, further chain): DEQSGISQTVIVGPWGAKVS
Experimental: (§1) The biotinylated galactoside 3 (Figure 5) was immobilized on a streptavidin coated sensor. […] This is likely due to the well-known low affinity of monovalent ligands for most lectins even though the presentation of the ligand on the chip was also multivalent, but apparently not matching the distances between binding sites. Next, the binding properties of the divalent biotinylated 4 with the mentioned lectins were evaluated. […] Indeed, during the dissociation step, the signal only partially decreases down to the baseline and this lack of full dissociation indicates high affinity. Using this setup, kinetic parameters of the interaction were determined for the divalent galactoside to evaluate whether the divalent binding mode of this ligand influences the lectin–ligand kinetics. By fitting the sensorgrams with a global model ([…]), association (ka or kon) and dissociation (kd or koff) constants were determined and the KD was calculated from the ratio of kd over the ka while the residence time (τ) was derived from 1/kd. […] The same was true for compound 4 and lectins MPL and JIL.
BLI measurements were carried out using an Octet RED 384 instrument (ForteBio). Biosensors were transferred into fresh assay buffer for 180 s to collect a baseline read. […] The KD derived from kinetic fitting was calculated as koff/kon.

[6] = target: T1, LecA; assay: as above; type: binding; conditions: immobilized ligand
Experimental: as §1
(§2) BLI measurements were carried out using an Octet RED 384 instrument (ForteBio). Biosensors were transferred into fresh assay buffer for 180 s to collect a baseline read. Compound 3 and compound 4 were immobilized on streptavidin (SA)-functionalized biosensors to maximum levels by incubation for 900 s at 1 μM ([Guo et al. 2018]). For each set of biosensors, an 180 s baseline in buffer alone was acquired followed by an 1800 s association step and an 1800 s dissociation step. All experiments were carried out using PBS (10 mM phosphate, 150 mM NaCl, pH 7.4) as the assay buffer at 298 K. Data were processed and analyzed and KD values were determined using the global fitting procedures as implemented in Octet® system Data Analysis Software 9.0.0.48 (Pall ForteBio LLC, Menlo Park, CA, USA). Kinetic responses were fitted to a 1-site binding model to obtain values for association (kon) and dissociation (koff) rate constants. The KD derived from kinetic fitting was calculated as koff/kon.

[7] = target: T4, MPL (Maclura pomifera, UniProt P18674); assay: as above; type: binding; conditions: immobilized ligand
T4 construct: purchased Vector Laboratories (San Francisco, CA, USA)
T4 sequence (P18674 whole entry): as the sequence (P18674 whole entry) above
Experimental: as §1, §2

T1 sequence (Q05097 2-122): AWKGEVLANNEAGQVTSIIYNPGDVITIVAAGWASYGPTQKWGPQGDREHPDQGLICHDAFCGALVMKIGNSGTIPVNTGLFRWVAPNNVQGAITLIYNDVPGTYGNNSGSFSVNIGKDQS

SMILES | stabilization of LecA (ΔTm) ([1]; LecA 1 mg/mL) | Tm of LecA [1] [°C] | Kd [2] [µM] | μeff shift of LecA with carbohydrate in BGE ([2]; mixture of LecA and MPL, 1 mM of 1 or 20 μM of 2 in BGE) | LecA fully occupied [3] [%] | LecA fully unoccupied [3] [%] | LecA with one pocket occupied [3] [%] | LecA with three pockets occupied [3] [%] | LecA with two pockets occupied [3] [%] | μeff shift of MPL with carbohydrate in BGE [4] | BLI signal ([5]; JIL at 1 μM) | BLI association and dissociation ([5]; JIL up to 10 μM) | BLI signal ([6]; LecA at 1 μM) | BLI association and dissociation ([6]; LecA up to 10 μM) | BLI signal ([7]; MPL at 1 μM) | BLI association and dissociation ([7]; MPL up to 10 μM)
OC[C@H]1OC(O)[C@@H](O)[C@@H](O)[C@@H]1O (stereo partly drawn) [D-Mannose, D-mannose] | did not stabilize LecA at all | 71.7 |  |  |  |  |  |  |  |  |  |  |  |  |  | 
O=C(O)CO[C@@H]1O[C@H](CO)[C@H](O)[C@H](O)[C@H]1O [Compound 1] |  | 74.0 | 27 | sizeable shift | 21 | 8 | 18 | 27 | 26 | sizeable shift |  |  |  |  |  | 
O=C(CCCC[C@@H]1SC[C@@H]2NC(=O)N[C@@H]21)NCCCCCC(=O)NCCCO[C@@H]1O[C@H](CO)[C@H](O)[C@H](O)[C@H]1O [Compound 3] |  |  |  |  |  |  |  |  |  |  | no detectable signal | no significant association and dissociation phenomena | no detectable signal | no significant association and dissociation phenomena | no detectable signal | no significant association and dissociation phenomena
